What is called EC50 is the concentration that produces a half-maximal response. For orientation: pEC50 means the EC50 on a negative log10 scale, so that one unit is a factor of ten.

We go through 10 compounds from US9566265B2, “Carbazole compounds and therapeutic uses of the compounds” (Incuron, LLC, priority 2008, dated 2017).

The test system of one data set is HB 101 E. coli. Kind of data set: antibacterial cytotoxicity assay, gram(−) bacteria (OD600). To be noted: 48 hours, over a range of potencies, FIG. 13A. The data set is classed as cell-based.
The test system of the next data set is Bacillus subtilis. Kind of data set: antibacterial cytotoxicity assay, gram(+) bacteria (OD600). The class given is cell-based. To be noted: B. subtilis, 48 hours, over a range of potencies; FIG. 13B. As to the method:
In vitro test to evaluate the effect of carbazole compounds on gram(-) and gram(+) bacteria. Two days prior to the start of the cytotoxicity assay, inoculate DH5-α and B. subtilis into 1 ml of corresponding media from glycerol stocks. Allow to grow during the course of the day at 37° C. with shaking. Streak each bacteria on the appropriate agar plates using a sterile inoculation loop and allow to grow overnight at 37° C. in the bacteria incubator. Using a sterile inoculation loop, pick a single colony of bacteria and inoculate 5 ml of the corresponding media in a 14 ml snap cap tube. Grow overnight ( 16 h) at 37° C. with shaking. […] Dilute 5 ml cultures of DH5-α and B. subtilis to an OD600 nm of 0.002, which corresponds to about 2×10^6 cells/ml in a volume sufficient for the experiment (dependent on the number of plates). Plate out 50 μl into each well of X 96-well plates (X=# plates needed for a given experiment). […] Chemicals for testing are prepared by dilution of stock solutions in LB Broth or Nutrient Broth for DH5-α and B. subtilis studies, respectively. Cells are treated with the final chemical concentrations presented in the scheme below (Table 2). Stock solutions are made up in DMSO. […] However, this concentration is dependent on the solubility of a given chemical and actual stock concentrations must be noted at time of experiment. Each library chemical to be tested requires 2 rows of a 96-well plate, thus 4 chemicals ([…]) can be tested in one plate simultaneously. In addition to test chemicals, each plate should include positive and negative controls. As positive control, ampicillin is used at 100 μg/ml. […] Dilutions of chemicals to be added to the plate are made up as 2× concentrations in appropriate bacteria media and added to corresponding wells in a volume of 50 μl. […] This process is repeated until all 10 2× doses are prepared. […] Following the addition of carbazole compounds to 96-well plates containing bacteria, plates are transferred to the 37° C. bacteria incubator for 48 hours. After the incubation, the OD600 mm for each well of the 96-well plates will be measured. […] The % DMSO control is plotted vs compound concentration to generate sigmoid shaped curves. After three runs are complete, the raw data for all three runs is used for IC50 calculations.

The test system of the next data set is p53. The experiment in a line: p53 activation assay, p53 responsive luciferase reporter cell line. The data set is classed as cell-based, human. To be noted: for EC50 / pEC50: Homo sapiens; for pEC50: HT1080-L or RCC45ConALuc reporter cells, read-out: EC50 value (p53 activation). As for the experimental part: The potency of a present carbazole compound is determined by measuring an ability of the compound to inhibit NF-κB activity or to activate p53. […] Theoretically, such assays of the dose-response effect of activator compounds can be described as a sigmoidal curve expressing a degree of activation as a function of concentration. The curve also theoretically passes through a point at which the concentration is sufficient to increase activity to a level that is 50% that of the difference between a baseline and the maximal activity in the assay. […] Determination of an EC50 value is made using conventional biochemical (acellular) assay techniques or cell-based assay techniques.
The potency of a carbazole compound is determined by measuring an ability of the compound to activate p53.
The p53 activation assay for determination of the EC50 value was performed as follows:
HT1080-L (human fibrosarcoma cells with ConALuc reporter)
RCC45ConALuc (human renal cell carcinoma cell line with ConALuc reporter)
1. Two types of standard cells were used, either HT1080-L or RCC45ConALuc cells. Both cell lines stably express a p53 responsive luciferase reporter construct.
2. HT1080-L cells were grown in DMEM medium containing 10% FBS. RCC45ConALuc cells were grown in RPMI medium containing 10% FBS (Pen/Strep can be added to a final concentration of 1%, if desired). Both cell lines were grown in a humidified incubator at 37° C. with 5% CO2. For normal culturing, both cell lines were split using 1× trypsin-EDTA at a ratio of 1:20 for HT1080-L and 1:5 for RCC45ConALuc cells every 3-4 days (when cells are 80-90% confluent).
3. A day before the experiment, the cells are trypsinized for about 5 minutes in 1× tripsin/EDTA solution in 37° C. incubator and plated in 96 well plates. HT1080-L cells were seeded at a density of 1×10^4/well in standard DMEM medium in a volume of 50 μl. RCC45ConALuc were seeded at a density of 2×10^4/well in the volume of 50 uL in standard RPMI medium.
4. The next day, various carbazole compounds were prepared by dilution of stock solutions in standard DMEM medium such that the cells were treated with the final chemical concentrations in Table 1 below. Stock solutions were made up in DMSO. Typically, chemicals were made up as 20 mM stock solutions.
5. Each tested compound used two rows of a 96-well plate, thus four compounds (e.g., W, X, Y, Z) were tested in one plate simultaneously. In addition to test compounds, each plate included positive and negative controls. As positive control, 9aa was used at a dose of 3 μM. As a negative control, DMSO was used in final concentration 0.1%.
1. Dilutions of chemicals added to the plate were made up as 2× concentrations in standard DMEM and added to corresponding well in a volume of 50 μl.
2. Chemicals were diluted in standard DMEM by two time serial dilutions starting from 40 μM (2× of highest concentration, e.g., 20 μM). For one cell line, the minimum volume was 125 μL of 2× working solution of chemical of each concentration in standard DMEM.
4. Sixteen hours following compound addition, all wells with the highest concentrations of compounds are checked microscopically for the presence of toxic effect, because death of cells caused by compounds may not allow detecting luciferase activity. If cytotoxocity is evident, other doses of the same compounds were checked for the presence of toxicity. The lowest dose causing toxic effect was recorded.
5. After microscopic examination, 15 μl of Bright Glo luciferase assay system were added to each well and after 5 min incubation at RT, the plates were read on a 96 well plate luminometer with a measurement time of 0.1 sec. A shaking step was included before measurement.
6. The folds of luciferase activation for each concentration of each chemical were calculated by dividing the detected luciferase activity at each chemical concentration by the average of the luciferase activity for the DMSO control on the same plate.
(A reporter such as luciferase makes a cellular process visible.)

For data set [1], the system named is Plasmodium falciparum (strain D10). The experiment in a line: Plasmodium falciparum in vitro culture, infected erythrocytes. The class given is cell-based. To be noted: tested at 29, 57, 143 nM or 143 nM only; FIG. 12. As to the method:
In particular, the effect of carbazole compounds on the malaria parasite was tested by culturing Plasmodium falciparum (strain D10) in vitro in the presence or absence of test compounds.
In each experiment, 1000 erythrocytes were assessed microscopically to determine the number of infected cells.

Another data set concerns Topo II. Kind of data set: Topo II inhibition in vitro (Table I). The data set is classed as biochemical.
A further data set concerns γH2AX. The experiment in a line: γH2AX staining (Table I). The data set is classed as cell-based.
A further data set relates to ATM/ATR. The experiment in a line: ATM/ATR activation (Table I). The data set is classed as cell-based.
The subject of the next data set is Chk1/2. The experiment in a line: Chk1/2 phosphorylation (Table I). The class given is cell-based.
The next data set has as its system Bloodstream T. brucei. Kind of data set: T. brucei bloodstream form in vitro killing. To be noted: Trypanosoma brucei, read-out: IC50 (concentration that killed 50% of the parasites); bloodstream stage, 48 hrs of culture. The data set is classed as cell-based, Trypanosoma brucei. As to the method:
Preliminary T. brucei inactivation experiments were performed in vitro. The life cycle of T. brucei involves a “procyclic” developmental stage in a tsetse fly, and a “bloodstream” form in humans. All studies were performed with the bloodstream stage of the parasite, because it is the disease-causing developmental stage.
Suramin, a conventional anti-HAT drug, was used as a positive control.
Bloodstream T. brucei was seeded (3×10^3 cells/mL) in 24-well (500 uL of the media per well) plate. […] Control cultures received equal volumes of DMSO.

Data set [2] deals with Caki1 human renal cell carcinoma cells. The experiment in a line: Caki1 renal cell carcinoma xenograft efficacy test. To be noted: Day 24 (end of treatment); oral gavage 5 day on/2 day off; Example 7 30, Example 15 5, Example 13 25, Sunitinib 40 mg/kg.
Procedure: In an efficacy test using these three compounds, athymic nude mice were inoculated subcutaneously with a suspension of Caki1 human renal cell carcinoma cells into both rear flanks. When at least one tumor in a mouse reached 20-50 mm^3, treatment was commenced. […] As a positive control, one group was treated with 40 mg/kg Sunitinib, an approved drug for the treatment of renal cell carcinoma. Treatment was given for 4 weeks on a 5 day on/2 day off schedule. After treatment was completed, mice were monitored for an additional 4 weeks to determine how quickly tumor growth returned to normal.
[3] abbreviates: Table 3, test compounds of the malaria experiment.

pEC50, pIC50: −log10 of the molar value. Where two headings read alike, the source gives them in different places. Where only a bound is given, the exact number is not on record here.

As for `CC(=O)c1cc2c3c4c(ccc3n(CCCN(C)C)c2cc1O)C(=O)CC4` [Example 4, 9-Acetyl-6-[3-(dimethylamino)propyl]-8-hydroxy-1,6-dihydrocyclopenta[c]carbazol-3(2H)-one], the “antibacterial effect” value in the data set with HB 101 E. coli and in the data set on Bacillus subtilis was “antibacterial effect” each time. Further, the EC50 in the data set with p53 (16 h, read-out: EC50 value (p53 activation, μM)) was 0.07 µM.

On to `CCNCCCn1c2ccc3c(c2c2c4c(ccc21)C(=O)CC4)CCC3=O.Cl` [Example 18], for which the “antibacterial effect” value in the data set on HB 101 E. coli and with Bacillus subtilis was “antibacterial effect” each time. Further, the “anti-malarial activity, parasitemia reduction” value in [1] is “anti-malarial activity comparable to quinacrine”. Besides, in the data set with p53 (16 h, 16 h), the negative-log EC50 (pEC50) was 7.05. The EC50 in the data set with p53 (Table 3, test compounds of the malaria experiment, read-out: EC50, μM (p53 activation assay)) was determined as 0.09 µM.

As to `CCCCCn1c2ccc(C(C)=O)cc2c2c3c(ccc21)C(=O)CC3` [Compound 500, reference compound], in data set [1], the “anti-malarial activity, parasitemia reduction” value is given as “no parasitemia reduction”. Moreover, in the data set with p53 (setting [3]), the “EC50, μM (p53 activation assay)” value is listed as “Inactive”.

Consider `CC(=O)c1ccc2c(c1)c1cc(C(C)=O)ccc1n2CCC1CCCN1C` (stereo not shown) [Example 2, 1,1′-{9-[2-(1-Methylpyrrolidin-2-yl)ethyl]-9H-carbazole-3,6-diyl}diethanone], for which the “anti-malarial activity, parasitemia reduction” value in data set [1] is recorded as “anti-malarial activity comparable to quinacrine”. In addition, in the data set with p53 (read-out: EC50, μM (p53 activation assay)), the concentration for a half-maximal effect (EC50) was found to be 0.64 µM. In addition, the negative-log EC50 (pEC50) in the data set with p53 (16 h) is 6.19. Moreover, the “p53 activation, active or inactive carbazole” value in the data set on p53 (structural analysis, FIGS. 6 and 7) was “active”.

For the compound `CCN(CC)CCn1c2ccccc2c2cc(C(C)=O)ncc21.Cl` [Compound 400, reference compound], in data set [1], the “anti-malarial activity, parasitemia reduction” value is recorded as “no parasitemia reduction”. For the same compound, the “EC50, μM (p53 activation assay)” value in the data set with p53 (setting [3]) was “Inactive”.

As to `CCN(CC)CCn1c2ccc3c(c2c2c4c(ccc21)C(=O)CC4)CCC3=O.Cl` [Example 3, 6-[2-(Diethylamino)ethyl]-10,11-dihydro-1H-dicyclopenta[c,g]carbazole-3,9(2H,6H)-dione hydrochloride], the “Topo II inhibition in vitro” value in the data set with Topo II was “ligation”. The γH2AX staining result with γH2AX is reported as “no”. For the same compound, the Ames test result in “Ames test” is on record as “negative”. In the data set with ATM/ATR, the ATM/ATR activation entry was “no”. The Chk1/2 phospho entry with Chk1/2 is “no”.

Take `Cc1ccc(C(=O)Nc2ccc(S(=O)(=O)O)c3cc(S(=O)(=O)O)cc(S(=O)(=O)O)c23)cc1NC(=O)c1cccc(NC(=O)Nc2cccc(C(=O)Nc3cc(C(=O)Nc4ccc(S(=O)(=O)O)c5cc(S(=O)(=O)O)cc(S(=O)(=O)O)c45)ccc3C)c2)c1` [Suramin, reference compound]: in the data set with Bloodstream T. brucei, the pIC50 was under 6.52.

Turning to `CC(=O)c1cc2c3cc(C(C)=O)c(O)cc3n(CCCN(C)C)c2cc1O` [Example 12], the “antibacterial effect” value with HB 101 E. coli and in the data set with Bacillus subtilis was “antibacterial effect” each time.

For the compound `CC(=O)c1ccc2c(c1)c1c3c(ccc1n2CCC1CCCN1C)C(=O)CC3` (stereo not shown) [Compound 18c-1], the “antibacterial effect” value in the data set on HB 101 E. coli and in the data set on Bacillus subtilis was “antibacterial effect” in each case. Further, the pEC50 with p53 (16 h, 16 h) is 7.10.

On to `CCN(CC)CCNC(=O)c1c(C)[nH]c(/C=C2\C(=O)Nc3ccc(F)cc32)c1C` [Sunitinib, reference compound], for which the “tumor growth inhibition compared to the vehicle control” value in data set [2] came out at 42%.
